# Experimental data: US9593149B2, “Amylin and calcitonin receptor agonist” (Novo Nordisk A/S, priority 2014, dated 2017)
# Numbered stars: 1 amine (or outer) side, 2 acyl side, 3 side chain; on linkers, the order of the positions; unused ones are H or OH. Peptide text beside a SMILES is read from it. * marks the point of attachment. C18 diacid = O=C(O)CCCCCCCCCCCCCCCCC(=O)*; γGlu = O=C(O)[C@H](CCC(=O)[*:2])N[*:1]
# How the values were obtained:
# [1] = Assay (XV) subcutaneous PK in LYD-pigs, co-formulated or co-dosed with liraglutide; assay type: in vivo; conditions: for Cmax/D / T½ (hous): LYD-pigs s.c.
# Experimental: The studies were performed in female LYD pigs of SPF origin delivered from Lars Jonson, Hillerødvej 70, Lynge.
# Before the animals arrived, the animal rooms and pens were cleaned and disinfected with Virkon S. During the study, the animal rooms were cleaned and washed regularly.
# The pigs were group housed during the acclimatisation period. The pigs were fitted with a central venous catheter while under anaesthesia and after the single housed after catheterization in pens ≧3.1 m^2 with straw as bedding. The temperature in the rooms was set at 20−23° C. and the relative humidity to 30-70%. The rooms were illuminated to give a cycle of 12 hours light and 12 hours darkness. Light was on from 07.00 to 19.00 h.
# The formulations was prepared similarly and filled in cartridges in all cases.
# The animals were dosed subcutaneously as follows.
# The s.c. dosing was performed in 4 mm depth, in a site of injection which was secured on beforehand by ultrasound to avoid muscular tissue or heavy vascularization. Dosing was made using NovoPen®4 and needle Novofine 28 G and a needle stopper to ensure 4 mm depth of injection. The needle was kept in the subcutis for 10 seconds after the injection to secure deposition of compound. […] The co-formulation was administered as one injection. Study was performed as a cross over study with adequate wash out between dosings.
# Blood was sampled at predefined time points for up till 15 days post dosing to adequately cover the full plasma concentration-time profile of the mimylin derivative. Blood samples were drawn from a central venous catheter to jugularis made through the catheter which was afterwards flushed with 10 ml 0.9% NaCl.
# For each blood sampling time point approximately 0.8 mL of whole blood was collected in a 1.5 mL EDTA coated tube, and the tube was gently turned to allowing mixing of the sample with the anticoagulant. Blood samples (for example 0.8 mL) were collected in EDTA buffer (8 mM) and then centrifuged at 4° C. and 2000 G for 10 minutes. Plasma was pipetted into Micronic tubes on dry ice, and kept at −20° C. until analysis.
# Individual plasma concentration-time profiles were analysed by a non-compartmental model in Phoenix WinNonlin version 6.3 (Pharsight Inc., Mountain View, Calif., USA).
# The area under the plasma concentration versus time curve (AUC, [time×concentration]) was calculated (by the Pharsight programme) after subcutaneous administration, typically until 240-288 hours post dosing, or until last measured concentration. The AUC was calculated and given as AUCinf-pred and dose normalized.
# Results of co-formulation studies in LYD-pigs are summarized below
# [2] = Assay (IV) determination of solubility; assay type: physicochemical
# Experimental: Assay (IV)—Determination of Solubility
# The mimylin peptide was dissolved in water at ˜500 nmol/ml and mixed 1:1 with a series of buffers (100 mM glycylglycine pH 3.0, 100 mM glycylglycine pH 4.0, 100 mM glycylglycine pH 5.0, 100 mM bistrispropane pH 6.0, 100 mM bistrispropane pH 6.5, 100 mM bistrispropane pH 7.0, 100 mM bistrispropane pH 7.5, 100 mM bistrispropane pH 8.0).
# [3] = Assay (IX) pK, T½ in mini-pig; assay type: in vivo, Göttingen mini-pigs; conditions: i.v.
# Experimental: Assay (IX)—pK—Determination of T½ in Mini-Pig
# Pharmacokinetic (PK) studies in Göttingen mini-pigs were conducted in order to determine the T½ of the mimylin compound according to the Examples as indicated after i.v. administration.
# T½ values of the amylin analogues of the invention is determined by pharmacokinetic studies in female Göttingen mini-pigs from Ellegaard Göttingen Minipigs ApS and the principles of laboratory animal care are followed.
# An acclimatisation period of approximately 6-10 days was allowed before the animals entered the study. At start of the acclimatisation period the mini-pigs were about 5 to 12 months old and in the weight range of 15-35 kg. The mini-pigs had two central venous catheters inserted which were used for blood sampling.
# The studies were conducted in an animal room which was illuminated to give a cycle of approximately 12 hours light and 12 hours darkness. The animals were housed individually. The animals had free access to domestic quality drinking water during the study, and no food restrictions applied for PK studies. The animals were weighed on arrival and on the days of dosing.
# In the present studies the test substances were administered intravenously in approximately 5 nmol/kg dose. The animals received a single intravenous injection in one central venous catheter and blood sampling was performed from the other catheter, where possible. Each test substance was given to typically three but in some cases two or four animals.
# A full plasma concentration-time profile, employing 12-16 sampling points, was obtained from each animal. In example blood samples were collected according to the following schedule:
# After Intravenous Administration:
# Pre-dose (0), 0.5, 1, 2, 4, 6, 8, 12, 24, 48, 72, 96, 120, 168 and 240 hours after injection. In some cases also additional blood samples up to 288 hours post injection were taken.
# At each sampling time, 0.5 to 2 ml of blood was drawn from each animal. The blood samples were taken via the central venous catheter.
# The 0.8 mL blood samples were collected into EDTA test tubes (8 mM EDTA). Blood samples were kept on ice for max 20 min. before centrifugation. Plasma was separated using centrifugation (i.e. at 4° C., 10 min., 2000G) and was immediately transferred to Micronic tubes on dry ice. Approximately 200 μl plasma was transferred to each Micronic tube. The plasma was stored at −20° C. until assayed. The plasma samples were assayed for the content of compound using LCMS.
# The plasma concentration-time profiles were analysed by a non-compartmental pharmacokinetic analysis (NCA) using Phoenix WinNonlin 6.3 (Pharsight Inc., Mountain View, Calif., USA). NCA was performed using the individual plasma concentration-time profiles from each animal. T½ is the terminal half-life=In2/λz and was determined from λz, the first order rate constant associated with the terminal (log-linear) portion of the curve, estimated by linear regression of time vs. log concentration.
# MS-Method for Amylin and Mimylin Quantification
# 40 μl plasma is diluted with 120 μl 66.67% EtOH+1% HCOOH and mixed. Centrifuged for 20 min. at 13000 rpm, 4° C. The supernatant is analyzed by an LC-MS method on a Sciex API 3000 and quantitated with a standard made up in plasma
# [4] = Co-formulation liraglutide + Ex #46
compound,measurement,setting,value
"CC(C)C[C@H](NC(=O)[C@H](C)NC(=O)[C@H](C)NC(=O)[C@@H](NC(=O)[C@H](CO)NC(=O)[C@H](CC(C)C)NC(=O)[C@H](CCC(=O)O)NC(=O)[C@H](CO)NC(=O)[C@H](C)NC(=O)CC[C@H](NC(=O)CCCCCCCCCCCCCCCCC(=O)O)C(=O)O)[C@@H](C)O)C(=O)NCC(=O)N[C@@H](CCCNC(=N)N)C(=O)N[C@@H](CC(C)C)C(=O)N[C@@H](CO)C(=O)N[C@@H](C)C(=O)N[C@@H](CCC(=O)O)C(=O)N[C@@H](CC(C)C)C(=O)N[C@@H](Cc1cnc[nH]1)C(=O)N[C@@H](CCC(=O)O)C(=O)N[C@@H](CC(C)C)C(=O)N[C@@H](C)C(=O)N[C@H](C(=O)N[C@@H](CC(C)C)C(=O)N1CCC[C@H]1C(=O)N[C@@H](CCCNC(=N)N)C(=O)N[C@H](C(=O)N[C@@H](CCC(=O)O)C(=O)N[C@H](C(=O)NCC(=O)N[C@@H](CO)C(=O)NCC(=O)N[C@@H](CO)C(=O)N1CCC[C@H]1C(N)=O)[C@@H](C)O)[C@@H](C)O)[C@@H](C)O [Ex. #46, [N-terminal(C18 diacid-gGlu), des1, 30S, 31G]mimylin] ({C18 diacid-γGlu}-ASELSTAALGRLSAELHELATLPRTETGSGSP-NH2)",Cmax/D,[1]; Co-dosing liraglutide + Ex #46,5.2 kg/L
same,T½ (hous),[1]; Co-dosing liraglutide + Ex #46,129 hous
same,Cmax/D,[1]; [4],5.7 kg/L
same,T½ (hous),[1]; [4],133 hous
same,effect on PK profile of the co-formulated peptide,[1]; administered as co-formulations to LYD pigs,do not affect the PK profile of liraglutide
same,Solubility,[2]; pH 3.0,≧200 μM
same,Solubility,[2]; pH 4.0,≧200 μM
same,Solubility,[2]; pH 5.0,≧200 μM
same,Solubility,[2]; pH 6.0,≧200 μM
same,Solubility,[2]; pH 6.5,≧200 μM
same,Solubility,[2]; pH 7.0,≧200 μM
same,Solubility,[2]; pH 7.5,≧200 μM
same,Solubility,[2]; pH 8.0,≧200 μM
same,PK mini pig iv T½,[3],118 h
